Data as given in patent US9156811B2 (priority 2008, dated 2015).

system: Trypanosome (T. brucei brucei); assay: In-vitro antitrypanosomal efficacy assay (cell growth, resazurin); type: cell-based; conditions: T. brucei brucei, blood stream form, variant 221
Procedure: To column 12, 200 μl media was added to provide a no cells control. Plates were then incubated at 37° C. in an atmosphere of 5% CO2 for 69 hours, before the addition of 20 μl of 500 μM rezasurin solution, and a further incubation period of 4 hours. […] Concentration effect curves were fitted using non-linear regression using XLFit 4.2 and EC50 values determined.

Compound	ED50 (μM) T. brucei
Cc1nn(C)c(C)c1N(CC(F)F)[S+](=O)([O-])c1c(Cl)cc(CCCC2CCN(C)CC2)cc1Cl [DDD100160]	0.013 µM
Cc1ccc(-c2ccc([S+](=O)([O-])Nc3c(CC(C)C)nn(C)c3C)cc2)cc1CN(C)C [DDD99824]	0.014 µM
Cc1nn(C)c(C)c1N(CC(F)F)[S+](=O)([O-])c1c(Cl)cc(CCCN2CCCN(C)CC2)cc1Cl [DDD100802]	0.004 µM
CCc1nccn1CCCCCCc1cc(Cl)c([S+](=O)([O-])N(c2c(C)nn(C)c2C)C(F)F)c(Cl)c1 [DDD100794]	0.160 µM
CCN(c1c(C)nn(C)c1C)[S+](=O)([O-])c1c(Cl)cc(CCCC2CCNCC2)cc1Cl [DDD100091]	0.004 µM
Cc1nn(C)c(C)c1N(C(F)F)[S+](=O)([O-])c1c(Cl)cc(CCCOC2CN3CCC2CC3)cc1Cl (stereo not drawn) [DDD100872]	0.002 µM

same assay, conditions: T. brucei cell growth

Compound	ED50 (μM) T. brucei
Cc1c(N[S+](=O)([O-])c2c(Cl)cc(Br)cc2Cl)c(CC(C)C)nn1C [DDD88198, 4-Bromo-2,6-dichloro-N-(3-isobutyl-1,5-dimethyl-1H-pyrazol-4-yl)-benzenesulfonamide]	2.3 µM
Cc1nn(C)c(C)c1N[S+](=O)([O-])c1c(Cl)cc(Br)cc1Cl [DDD73234, 4-Bromo-2,6-dichloro-N-(1,3,5-trimethyl-1H-pyrazol-4-yl)-benzenesulfonamide]	14.3 µM
Cc1nn(C)c(C)c1N(C)[S+](=O)([O-])c1ccc(CCCC2CCN(C)CC2)cc1 [DDD90023]	0.20 µM
Cc1c(N(C)[S+](=O)([O-])c2ccc(CCCC3CCN(C)CC3)cc2)c(CC(C)C)nn1C [DDD90142]	0.168 µM
Cc1nn(C)c(C)c1N(C)[S+](=O)([O-])c1ccc(Br)cc1 [DDD87766, 4-Bromo-N-methyl-N-(1,3,5-trimethyl-1H-pyrazol-4-yl)-benzenesulfonamide]	>1 µM
CCc1ccc([S+](=O)([O-])Nc2c(C)nn(C)c2C)cc1 [DDD71231]	>1 µM
Cc1nn(C)c(C)c1N(C)[S+](=O)([O-])c1c(Cl)cc(CCCN2CCCNCC2)cc1Cl [DDD99755]	0.002 µM
Cc1nn(C)c(C)c1N[S+](=O)([O-])c1cc(F)c(Br)cc1F [DDD88004, 4-Bromo-3,6-difluoro-N-(1,3,5-trimethyl-1H-pyrazol-4-yl)-benzenesulfonamide]	>1 µM
Cc1nn(C)c(C)c1N[S+](=O)([O-])c1ccc(Cl)nc1 [DDD73235, 6-Chloro-pyridine-3-sulfonic acid (1,3,5-trimethyl-1H-pyrazol-4-yl)-amide]	>1 µM
Cc1nn(C)c(C)c1N[S+](=O)([O-])c1ccc(N2CCC(N(C)C)C2)nc1 (stereo not drawn) [DDD86306]	>1 µM
Cc1nn(C)c(C)c1N[S+](=O)([O-])c1ccc(-c2cccc(CN3CCCC3)c2)cc1 [DDD86318, 3′-Pyrrolidin-1-ylmethyl-biphenyl-4-sulfonic acid (1,3,5-trimethyl-1H-pyrazol-4-yl)-amide]	0.21 µM
Cc1nn(C)c(C)c1N[S+](=O)([O-])c1ccc(NCCN2CCN(Cc3ccccc3)CC2)nc1 [DDD86472]	>1 µM
Cc1c(N[S+](=O)([O-])c2ccc(-c3ccnc(N4CCNCC4)c3)cc2)cnn1C [DDD87995, N-(1,5-Dimethyl-1H-pyrazol-4-yl)-4-(2-piperazin-1-yl-pyridin-4-yl)-benzenesulfonamide]	0.02 µM
Cc1nn(C)c(CC(C)C)c1N[S+](=O)([O-])c1c(Cl)cc(-c2ccnc(N3CCNCC3)c2)cc1Cl [DDD86467, 2,6-Dichloro-N-(5-isobutyl-1,3-dimethyl-1H-pyrazol-4-yl)-4-(2-piperazin-1-yl-pyridin-4-yl)-benzenesulfonamide]	0.003 µM
Cc1nn(C)c(C)c1N[S+](=O)([O-])c1ccc(-c2cccc(CNCc3ccccc3)c2)cc1 [DDD87765, 3′-(Benzylamino-methyl)-biphenyl-4-sulfonic acid (1,3,5-trimethyl-1H-pyrazol-4-yl)-amide]	>1 µM
